In patent publication US8101768B2, “Cyclic amine compound and pest control agent” (Nippon Soda Co., Ltd., priority 2004, dated 2012):

test system: organophosphorous agent resistant two-spotted spider mites; experiment: Effect on Two-spotted Spider Mite (spray on kidney bean leaves); assay type: in vivo; details: 125 ppm, water dispersible powder of Formulation Example 1 sprayed, 17 female adults, 25° C., 65% humidity, 3 days
Description: Effect on Two-spotted Spider Mite
17 female adults of organophosphorous agent resistant two-spotted spider mites were inoculated onto the first leaves of kidney beans seeded onto 3.5 inch pots and germinated 7 to 10 days before, onto which each of liquid agents, diluted with water so as to adjust the respective concentration of the chemical compounds to 125 ppm according to the formulation of the water dispersible powder shown in the aforementioned Formulation Example 1, was sprayed. After they were left in a thermostatic chamber at 25° C. in 65% humidity for 3 days, the rate of killed adults was investigated. The examination was repeated twice. As the results, the following chemical compounds killed 100% of the adults.

Row | SMILES | rate of killed adults [%]
1 | Cc1cc(C)c(OC2CCN(c3ccc(C(F)(F)F)cn3)CC2)c(C)c1 [1-47] | 100
2 | Cc1cnc(-c2cc(C(F)(F)F)ccc2OC2CC3CCC(C2)N3c2ccc(C(F)(F)F)cn2)o1 (centres unmarked) [2-205] | 100
3 | COC(C)COc1cc(C(F)(F)F)ccc1OC1CC2CCC(C1)[N+]2([O-])c1ccc(C(F)(F)F)cn1 (centres unmarked) [2-174] | 100
4 | CCC(C)=NOc1cc(C(F)(F)F)ccc1OC1CC2CCC(C1)N2c1ccc(C(F)(F)F)cn1 (mixture of isomers) [2-226] | 100
5 | CN(C)S(=O)(=O)Oc1cc(C(F)(F)F)ccc1OC1CC2CCC(C1)N2c1ccc(C(F)(F)F)cn1 (centres unmarked) [2-155] | 100
6 | CCCc1cc(Cl)ccc1OC1CCN(c2ccc(C(F)(F)F)cn2)CC1 [1-57] | 100
7 | FC(F)(F)c1ccc(N2CC3CCC(C2)C3Oc2ccc(C(F)(F)F)cc2OCC2CCCO2)nc1 (centres unmarked) [5-214] | 100
8 | CCCOc1cc(C(F)(F)F)ccc1OC1CCN(c2ccc(C(F)(F)F)cn2)CC1CCC (centres unmarked) [1-192] | 100
9 | CC(C)S(=O)(=O)Oc1cc(C(F)(F)F)ccc1OC1C2CCC1CN(c1ccc(C(F)(F)F)cn1)C2 (centres unmarked) [5-164] | 100
10 | COCC(C)Oc1cc(C(F)(F)F)ccc1OC1CC2CCC(C1)N2c1ccc(C(F)(F)F)cn1 (centres unmarked) [2-178] | 100
11 | CC=Cc1cc(C(F)(F)F)ccc1OC1CCN(c2ccc(C(F)(F)F)cn2)CC1 [1-73] | 100
12 | COCCCc1cc(C(F)(F)F)ccc1OC1CC2CCC(C1)N2c1ccc(C(F)(F)F)cn1 (centres unmarked) [2-190] | 100
13 | CCC(C)OCc1cc(C(F)(F)F)ccc1O[C@@H]1[C@@H]2CC[C@H]1CN(c1ccc(C(F)(F)F)cn1)C2 (some centres unmarked) [5-242] | 100
14 | COCOc1cc(C(F)(F)F)ccc1OC1CC2CCC(C1)N2c1ccc(C(F)(F)F)cn1 (stereo not drawn) [2-102, 3α-[2-methoxymethoxy-4-(trifluoromethyl)phenoxy]-8-[5-(trifluoromethyl)-2-pyridyl]-8-azabicyclo[3.2.1]octane] | 100
15 | CCCOc1cc(C#N)ccc1OC1CC2CCC(C1)N2c1ccc(C(F)(F)F)cn1 (centres unmarked) [2-81] | 100
16 | C=CCCOc1cc(C(F)(F)F)ccc1OC1CC2CCC(C1)N2c1ccc(C(F)(F)F)cn1 (centres unmarked) [2-144] | 100
17 | CCCCCOc1cc(C(F)(F)F)ccc1OC1CC2CCC(C1)N2c1ccc(C(F)(F)F)cn1 (centres unmarked) [2-100] | 100
18 | CCC(=O)c1cc(C(F)(F)F)ccc1OC1CCN(c2ccc(C(F)(F)F)cn2)CC1 [1-179] | 100
19 | CC(CBr)OC(=O)c1cc(C(F)(F)F)ccc1OC1CC2CCC(C1)N2c1ccc(C(F)(F)F)cn1 (centres unmarked) [2-236] | 100
20 | CC(=O)COc1cc(C(F)(F)F)ccc1O[C@@H]1[C@@H]2CC[C@H]1CN(c1ccc(C(F)(F)F)cn1)C2 [5-126] | 100
21 | CCOc1cc(C(F)(F)F)ccc1OC1CCN(c2ccc(Br)cn2)CC1 [1-91] | 100
22 | CS(=O)(=O)Oc1cc(C(F)(F)F)ccc1OC1C2CCC1CN(c1ccc(C(F)(F)F)cn1)C2 (centres unmarked) [5-161] | 100
23 | FC(F)(F)c1ccc(N2CCC(Oc3ccc(C(F)(F)F)cc3COC3CCCO3)CC2)nc1 (centres unmarked) [1-180] | 100
24 | CC(C)(C)COc1cc(C(F)(F)F)ccc1OC1CC2CCC(C1)N2c1ccc(C(F)(F)F)cn1 (centres unmarked) [2-111] | 100
25 | FC(F)(F)c1ccc(N2C[C@H]3CC[C@@H](C2)[C@@H]3Oc2ccc(C(F)(F)F)cc2OCc2ccccc2)nc1 [5-106] | 100
26 | CC(=O)OC(C)COc1cc(C(F)(F)F)ccc1O[C@@H]1[C@@H]2CC[C@H]1CN(c1ccc(C(F)(F)F)cn1)C2 (some centres unmarked) [5-114] | 100
